Measured values as given in patent publication US20020102262A1, “Collagen binding protein compositions and methods of use” (priority 1996, published 2002).

Key:
αCBD(151-297) IgG [1] = experiment: ELISA reactivity of αCBD(151-297) IgG with eight 25-amino-acid synthetic CBD peptides; assay type: binding, rabbit; settings: 25-amino-acid synthetic peptides as targets
Experimental: Rabbits were immunized with […] as described. Sera were also collected prior to immunization and tested for reactivity to CBD(151-297). The reactivity of the antiserum with different segments of CBD(151-297) was tested in an ELISA using a series of eight 25-amino-acid long synthetic peptides with partially overlapping sequences as targets. Purified IgG reacted strongly with peptides 2, 3, 5, 6, and 7 and weakly with peptides 1, 4, and 8. When preimmune IgG was tested with the CBD peptides, little reaction could be detected. The relative immunological reactivity of the different peptides correlated closely with their antigenic index using the algorithm of Jameson and Wolf (1988).

S. aureus = experiment: Inhibition of binding of 125I-labeled type II Col to S. aureus cells; design: species or system Staphylococcus aureus
Experimental: Purified αCBD(151-297) IgG inhibited the binding of S. aureus to ^125I-labeled Col in a dose-dependent manner.
(§1) To further investigate the interaction between peptide CBD4 and αCBD(151-297) IgG and its affect on Col binding, a fixed concentration of the antibody was incubated with an increasing amount of peptide CBD4. […] Thus, a relatively small reduction in inhibition could be easily detected.
Peptide CBD7 which reacted strongly with αCBD(151-297) IgG in the ELISA assay was also tested. […] Five μM CBD4 inhibited binding by over 50%.
To identify residues within CBD4 necessary for Col binding synthesized several smaller overlapping peptides were synthesized. A series of peptides that contained a 2 amino-terminal residues and one peptide that contained a 2 amino acid deletion at the carboxyl terminus were made. The peptides (10 μM) were assayed for their ability to inhibit the binding of ^1251I-labeled Col to S. aureus. Peptide CBD4 inhibited Col binding by 76%, whereas all peptides containing amino-terminal truncations had little activity at the concentration tested.

αCBD(151-297) IgG [2] = experiment: Neutralization of the inhibitory activity of αCBD(151-297) IgG by synthetic CBD peptides; assay type: binding, rabbit
Experimental: The different synthetic CBD peptides described above and shown to react with the αCBD(151-297) IgG were assayed for their potential to neutralize the inhibitory activity of the antibody. The αCBD(151-297) IgG (12 μg) was preincubated with a single dose (100 μg) of each peptide in step one. The S. aureus cells were then added and the preincubation continued. Finally, the ^125I-labeled type II Col was added. Peptide CBD4 neutralized 68% of αCBD(151-297) IgG inhibitory activity, while the other peptides tested had little or no effect. […] Although other peptide sequences were more immunogenic than CBD4, the antibodies recognizing the corresponding epitopes were not inhibitory.
as §1

[3] = tested on: S. aureus strain Phillips; experiment: Mouse sepsis model, active immunization, intravenous challenge with S. aureus expressing CBP; assay type: in vivo, mice
Text: Gram-positive bacteria related sepsis is on the increase. In fact between one-third and one-half of all cases of sepsis are caused by gram-positive bacteria, particularly S. aureus and S. epidermidis. In the United States, it can be estimated that over 200,000 patients will develop gram-positive related sepsis this year. […] Mice were immunized subcutaneously with either M55 or a control antigen (bovine serum albumin) and then challenged intravenously with S. aureus. Eighty-three percent (35/42) of the mice immunized with M55 survived compared to only 27% of the BSA immunized mice (12/45). This is a compilation of 3 separate studies.
Day -31: 100μg/mouse of a CBP Epitope (i.e. M17, M31, or M55) or BSA emulsified with Freund's Complete adjuvant (Difco Laboratories) as a control.
Day -18: 100μg/mouse of a CBP Epitope (ie. M17, M31, or M55) or BSA dissolved in sterile phosphate buffered saline (PBS)
Day -7: 100μg/mouse of a CBP Epitope (i.e. M17, M31, or M55) or BSA dissolved in PBS
Day 0: inoculate intravenously S. aureus strain Phillips (which expresses CBP) (Dose: 2.8×10^7 cfu/mouse)
Day 14: end of study; all surviving mice were euthanized.

[4] = tested on: strain of S. aureus that does not express the Col-binding MSCRAMM; experiment: Mouse sepsis control study, challenge with S. aureus not expressing the Col-binding MSCRAMM; assay type: in vivo; settings: immunized mice, challenge strain without Col-binding MSCRAMM
Text: The mortality in the M55 group was 50% compared to 30% in the BSA group.

M55 = M55 (Staphylococcus aureus, UniProt Q53654); settings: animals immunized with M55 and infected with a sub-lethal dose S. aureus
Experimental: Serum level of specific antibodies against the collagen adhesion peptide M55 was measured by an enzyme-linked immunosorbent assay (ELISA). 96-well microplates (Nunc) were coated overnight at 4° C. with 2 μg/ml of M55 peptide. Blocking was done with 0.5% ovalbumin (Sigma Chemical Co., St. Louis, MO) dissolved in 0.05 M Tris (pH 7.7). Sera, biotinylated antibodies, the ExtrAvidin-peroxidase (Sigma) were all diluted in 0.05 M Tris (pH7.4)-0.015 M NaCl. The plates were incubated overnight at 4° C. with sera, washed and incubated stepwise with biotinylated goat anti-mouse IgG antibody (Jackson Immuno Research Laboratories, Inc., West Grove, PA), ExtrAvidin-peroxidase (0.5 μg/ml; Sigma) and ABTS substrate. The A405 was measured in a Titertec Multiscan photometer (Flow Laboratories, McLean, Va.). […] OVA was used as control solid antigen.

[5] = subcutaneous immunization, intravenous challenge, compilation of 3 separate studies

Sequence of M55 (Q53654 18-529, looked up, natural form): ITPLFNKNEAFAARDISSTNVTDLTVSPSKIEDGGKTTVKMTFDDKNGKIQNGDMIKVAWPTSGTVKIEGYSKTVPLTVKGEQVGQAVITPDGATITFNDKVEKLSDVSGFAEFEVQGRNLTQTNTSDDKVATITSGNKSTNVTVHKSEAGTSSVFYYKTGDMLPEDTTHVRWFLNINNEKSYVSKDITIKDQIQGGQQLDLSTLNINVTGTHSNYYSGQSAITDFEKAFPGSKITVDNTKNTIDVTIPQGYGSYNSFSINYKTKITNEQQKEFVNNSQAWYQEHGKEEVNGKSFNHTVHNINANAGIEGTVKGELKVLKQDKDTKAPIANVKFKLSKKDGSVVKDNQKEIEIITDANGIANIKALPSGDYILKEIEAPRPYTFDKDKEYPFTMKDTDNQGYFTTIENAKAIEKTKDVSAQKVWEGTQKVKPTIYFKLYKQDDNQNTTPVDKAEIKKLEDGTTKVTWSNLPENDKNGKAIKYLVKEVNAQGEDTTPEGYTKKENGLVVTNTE

Substance	reactivity with purified αCBD(151-297) IgG in ELISA (αCBD(151-297) IgG [1])	inhibition of 125I-Col binding to S. aureus (S. aureus; Five μM peptide incubated with 125I-Col before S. aureus)	direct inhibition of 125I-Col binding to S. aureus (S. aureus; increasing amounts of peptide preincubated with 125I-Col)	inhibition of binding of 125I-labeled Col to S. aureus (S. aureus; peptide 10 μM) [%]	effect of peptide on Col binding to S. aureus in presence of αCBD(151-297) IgG (αCBD(151-297) IgG [2]; 100 μg peptide, IgG 12 μg/ml)	neutralization of αCBD(151-297) IgG inhibitory activity (αCBD(151-297) IgG [2]; IgG 12 μg preincubated with single dose 100 μg peptide) [%]	mice died/total ([3]; 100μg/mouse on days -31, -18, -7, 2.8×10^7 cfu/mouse i.v. day 0, end day 14)	protection against sepsis ([3]; in words)	percent of mice surviving [3, 5]	surviving mice/total mice [3, 5]	mortality [4] [%]	anti-M55 IgG (Col MSCRAMM) titers (M55)
CBD4: 25-amino-acid synthetic peptide, amino acids 209-233 (Asp209 to Tyr233) of S. aureus CBP (DQIQGGQQLDLSTLNINVTGTHSNY)	weakly	over 50%	inhibited in a dose-dependent manner	76	restored the level of Col binding to S. aureus observed in absence of αCBD(151-297) IgG	68	–	–	–	–	–	–
M55: recombinant His-tagged S. aureus Col-binding MSCRAMM derivative, amino acids 30-531 of full length CBP (SEQ ID NO:6)	–	–	–	–	–	–	4/11	highly effective in protecting against sepsis	Eighty-three	35/42	50	32×10^9 units/ml
